Data as given in article PMC10943695, “Neutrophil elastase as a versatile cleavage enzyme for activation of αvβ3 integrin-targeted small molecule drug conjugates with different payload classes in the tumor microenvironment” (Frontiers in Pharmacology, 2024).
“Also recorded” adds a separate entry of the source. Like-named read-outs stand apart in the source and are kept apart here. Where a SMILES comes first, the peptide text is derived from it. [ ]: non-standard residue; d: D form. The star is where a group is joined. Dolaproine = CO[C@@H]([C@@H]1CCCN1)[C@@H](C)C(=O)O; Dil = CC[C@H](C)[C@H](NC)[C@@H](CC(=O)O)OC; X1 = C[C@@H](N*)[C@@H](O)c1ccccc1; NMeV = CN[C@H](C(=O)O)C(C)C

How the values were obtained:
[1] = Intravenous pharmacokinetics in rat; assay type: in vivo; details: for AUC(0-inf) / half-life / clearance / Vd: rat, in vivo, iv; for clearance: read-out: CLp; for Vd: read-out: Vss; for Plasma concentration of released payload: rat plasma after 0.5 mg/kg i.v. of the parent SMDC (4, 5, 6), LLOQ < 0.0005 µM
Protocol: Pharmacokinetic properties of SMDCs and their respective payloads were characterized in rats. Briefly, male Wistar rats (n = 3) were given a 0.5 mg/kg dose of SMDC formulated in plasma/DMSO (99:1) intravenously (i.v.) via tail vein. Blood was collected at pre-dose, 2, 5, 15, 30, 45, 60 min, 2, 4, 7, 24 h post-dose and then processed to plasma. Plasma was frozen at < −20°C until sample analysis. Plasma samples were analyzed for concentrations of SMDCs and their respective released payloads by LC-MS/MS.
Pharmacokinetics of SMDCs and their respective payloads from in vivo studies were determined using mean concentration-time profiles. All pharmacokinetic parameters were calculated by non-compartmental methods as previously described ([Perrier and Gibaldi, 1982]).

[2] = target: T1, human neutrophil elastase (Homo sapiens, UniProt P08246); assay: Human neutrophil elastase cleavability assay; assay type: biochemical; details: 5 µM SMDC, 20, 40, 60 nM NE, 1 h, 37°C
T1 sequence (P08246 30-267): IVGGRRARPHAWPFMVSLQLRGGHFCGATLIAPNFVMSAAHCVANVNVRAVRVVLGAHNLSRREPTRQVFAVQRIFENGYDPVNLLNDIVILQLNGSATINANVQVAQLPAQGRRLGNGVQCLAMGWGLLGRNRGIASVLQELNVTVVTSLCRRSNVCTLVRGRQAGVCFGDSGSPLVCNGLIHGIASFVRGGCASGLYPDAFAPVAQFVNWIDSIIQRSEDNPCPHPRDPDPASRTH
Protocol: For the NE cleavability assay, the SMDC test compound was added to buffer (150 mM NaCl, 10 mM CaCl2, 0.05% BSA) to a final concentration of 5 µM (0.5% DMSO). The reaction was started by adding different concentrations of human NE (0, 20, 40, 60 nM) to the reaction vials. After incubation for 1 h at 37°C, the enzymatic reaction was stopped by precipitation in 50% ACN. Subsequently, the samples were subjected to HPLC-MS analysis to determine the concentration of test compound and of its metabolite.

MX-1 TNBC xenograft = assay: In vivo efficacy in MX-1 TNBC xenograft model; details: 20 mg/kg i.v.
Protocol: For in vivo efficacy studies, immunocompromised mice were inoculated subcutaneously with 1x10^6 MX-1 TNBC cells in 50% Matrigel/50% Media on day 0. Treatment was started at a mean tumor volume of 75 mm^3 in the MX-1 model (n = 12/group: Compound 2, 20 mg/kg i. v. in a 2 days on/5 days off and in a once weekly (QW) schedule. VIP236, 20 mg/kg i. v. QW). Tumor and body weight were measured at least twice weekly.

[3] = Stability in human plasma; assay type: in vitro ADME; details: 37 °C
Stability in rat plasma = assay type: in vitro ADME; details: 37 °C
Protocol: The SMDC compounds 2, 3, 4, 5 and 6 (1 mg) were dissolved in acetonitrile/DMSO (1:1, 0.5 mL). While vortexing, 20 µL of this solution was added to 1 mL rat plasma at 37 °C. The incubation was stopped at respective time intervals by adding acetonitrile/buffer pH 3 (80:20) and the test compounds and formation of degradation products were analyzed by LC and LC/MS.

[4] = Hydrolytic stability in PBS buffer at pH 7.4; assay type: physicochemical; details: PBS pH 7.4, 37 °C, 24 h
Protocol: For hydrolytic stability measurement, compounds 2, 3, 4, 5 and 6 (0.15 mg) were dissolved in acetonitrile/DMSO (4:1, 0.5 mL) and 1 mL of PBS buffer at pH 7.4 was then added. The sample solution was analyzed by HPLC to determine the amount of the test compound and the formation of degradation products over a period of 24 h at 37 °C.

[5] = Caco-2 cell permeability flux assay; assay type: in vitro ADME; details: human, 37 °C, mean of at least two assays
Protocol: The cell permeability of the payloads released by the SMDCs 5 and 6, namely, compounds 10 and 11 were investigated with an in vitro flux assay using Caco-2 cells ([Troutman and Thakker, 2003]). The compounds were dissolved in HEPES buffer and applied (in triplicates) to the cells either on the apical (A) or basolateral (B) side of the Caco-2 monolayer at a final concentration of 2 μM. Before and after incubation for 2 h at 37 °C, samples were taken from both compartments and analyzed by LC-MS/MS. The apparent permeability coefficient (Papp) was calculated for both the apical to basolateral (A → B) and the basolateral to apical (B → A) direction as described by Schwab et al. ([Schwab et al., 2003]).

786-O (human RCC) cells = assay: In vitro cytotoxicity, MTT assay, in absence or presence of neutrophil elastase; assay type: cell-based; details: Homo sapiens, 786-0, 72 h exposure
Protocol: (§1) 786-O (human RCC), HT-29 (human CRC), NCI-H292 (human NSCLC), NCI-H69 (human SCLC), MX-1 (human TNBC), and SUM149PT (human IBC) cells were acquired from ATCC and cultured according to the provider’s instructions.
(§2) The in vitro cytotoxicity of the SMDCs in comparison to the respective payloads was tested in a panel of cancer cell lines after a 72 h continuous exposure in presence or absence of 20 nM neutrophil elastase using MTT assays (ATCC). IC50 values were determined as the concentration of compound required for 50% inhibition of cell viability.

[6] = tested on: NCI-H292 (human NSCLC) cells; assay: as above; assay type: cell-based; details: Homo sapiens, NCI-H292, 72 h exposure
Protocol: as §1, §2

HT-29 (human CRC) cells = assay: as above; assay type: cell-based; details: Homo sapiens, HT-29, 72 h exposure
Protocol: as §1, §2

[7] = tested on: SUM149PT (human IBC) cells; assay: as above; assay type: cell-based; details: Homo sapiens, SUM149PT, 72 h exposure
Protocol: as §1, §2

[8] = male Wistar rats, 0.5 mg/kg SMDC i.v., plasma
[9] = with 20 nM neutrophil elastase, read-out: IC50 786–0 + neutrophil elastase
[10] = without neutrophil elastase, read-out: IC50 786–0
[11] = with 20 nM neutrophil elastase, read-out: IC50 NCI-H292 + neutrophil elastase
[12] = without neutrophil elastase, read-out: IC50 NCI-H292
[13] = with 20 nM neutrophil elastase, read-out: IC50 HT29 + neutrophil elastase
[14] = without neutrophil elastase, read-out: IC50 HT29
[15] = with 20 nM neutrophil elastase, read-out: IC50 SUM149 PT + neutrophil elastase
[16] = without neutrophil elastase, read-out: IC50 SUM149PT

| SMILES | AUC(0-inf) [1, 8] [µM·h] | half-life [1, 8] [h] | clearance [1, 8] [mL/min/kg] | Vd [1, 8] [L/kg] | Cleavage by human NE [2] | Stability in human plasma [3] | Stability in rat plasma (Stability in rat plasma) | Stability in buffer pH 7.4 [4] | Papp A→B at 2 h, 2 μM [5] [×10⁻⁶ cm/s] | Papp B→A at 2 h, 2 μM [5] [×10⁻⁶ cm/s] | efflux ratio at 2 h, 2 μM [5] | Plasma concentration of released payload [1] | IC50 (786-O (human RCC) cells; [9]) [nM] | IC50 (786-O (human RCC) cells; [10]) [nM] | IC50 [6, 11] [nM] | IC50 [6, 12] [nM] | IC50 (HT-29 (human CRC) cells; [13]) [nM] | IC50 (HT-29 (human CRC) cells; [14]) [nM] | IC50 [7, 15] [nM] | IC50 [7, 16] [nM] | further results |
| --- | --- | --- | --- | --- | --- | --- | --- | --- | --- | --- | --- | --- | --- | --- | --- | --- | --- | --- | --- | --- | --- |
| CCCNC(=O)Nc1cccc(S(=O)(=O)Nc2cccc([C@@H](CC(=O)O)NC(=O)Nc3ccc(NC(=O)NCCN(C)CCN(C)CCN(C)CC(=O)N[C@@H](CC(N)=O)C(=O)N4CCC[C@H]4C(=O)N[C@H](C(=O)O[C@]4(CC)C(=O)OCc5c4cc4n(c5=O)Cc5c-4nc4ccccc4c5CC)C(C)C)cc3)c2)c1 [Compound 2] | 2.52 ± 0.61 | 8.31 ± 5.49 | 2.33 ± 0.44 | 0.627 ± 0.344 | essentially completely cleaved | Very small fractions of a degradation product; also recorded: highly stable | highly stable | Very small fractions of a degradation product; also recorded: highly stable | – | – | – | – | – | – | – | – | – | – | – | – | payload/parent AUC ratio ([1]; male Wistar rats, 0.5 mg/kg SMDC i.v., plasma, molar basis): 0.0105; Tumor growth MX-1 (MX-1 TNBC xenograft; 2 days on/5 days off): significant tumor regression; also recorded: complete tumor regression; Body weight loss (MX-1 TNBC xenograft; 2 days on/5 days off, MX-1 model): no significant body weight loss; Tumor growth MX-1 (MX-1 TNBC xenograft; once weekly): tumor stasis; Body weight changes (MX-1 TNBC xenograft; MX-1 model): minor |
| CNC(=O)[C@@H](N)CCN(C(=O)CO)[C@@H](c1cc(-c2cc(F)ccc2F)cn1Cc1ccccc1)C(C)(C)C [Compound 11, (2S)-2-amino-4-[{(1R)-1-[1-benzyl-4-(2,5-difluorophenyl)-1H-pyrrol-2-yl]-2,2-dimethylpropyl}(glycoloyl)amino]-N-methylbutanamide] | – | – | – | – | – | – | – | – | 3.48 | 30.3 | 8.7 | largely below the lower limit of quantitation | 6 | 6 | 0.97 | 1.8 | 1.4 | 1.2 | 0.53 | 0.31 | – |
| CC(C)(C)[C@H](c1cc(-c2cc(F)ccc2F)cn1Cc1ccccc1)N(CCCN)C(=O)CO [Compound 10, N-(3-aminopropyl)-N-{(1R)-1-[1-benzyl-4-(2,5-difluorophenyl)-1H-pyrrol-2-yl]-2,2-dimethylpropyl}-2-hydroxyacetamide] | – | – | – | – | – | – | – | – | 0.38 | 18 | 129 | largely below the lower limit of quantitation | 2.5 | 2.5 | 0.27 | 0.46 | 0.41 | 0.41 | 0.17 | 0.33 | – |
| CCCNC(=O)Nc1cccc(S(=O)(=O)Nc2cccc([C@@H](CC(=O)O)NC(=O)Nc3ccc(NC(=O)NCCOCCOCCOCCC(=O)N[C@@H](CC(N)=O)C(=O)N4CCC[C@H]4C(=O)N[C@H](C(=O)NCCCN(C(=O)CO)[C@@H](c4cc(-c5cc(F)ccc5F)cn4Cc4ccccc4)C(C)(C)C)C(C)C)cc3)c2)c1 [Compound 5] | 1.09 ± 0.49 | 4.88 ± 4.37 | 5.5 ± 2.35 | 0.6 ± 0.515 | very slow | highly stable | highly stable | highly stable | – | – | – | – | – | – | – | – | – | – | – | – | – |
| CC[C@H](C)[C@@H]([C@@H](CC(=O)N1CCC[C@H]1[C@H](OC)[C@@H](C)C(=O)N[C@H](C)[C@@H](O)c1ccccc1)OC)N(C)C(=O)[C@@H](NC(=O)[C@@H](NC)C(C)C)C(C)C [Compound 9, N-methyl-L-valyl-N-[(3R,4S,5S)-1-{(2S)-2-[(1R,2R)-3-{[(1S,2R)-1-hydroxy-1-phenylpropan-2-yl]amino}-1-methoxy-2-methyl-3-oxopropyl]pyrrolidin-1-yl}-3-methoxy-5-methyl-1-oxoheptan-4-yl]-N-methyl-L-valinamide, reference compound] (H-[NMeV]V[Dil][Dolaproine]-X1) | – | – | – | – | – | – | – | – | – | – | – | largely below the lower limit of quantitation | 4.9 | 5.9 | 0.36 | 0.4 | 0.55 | 0.58 | 0.14 | 0.18 | – |
| CCc1c2c(nc3ccccc13)-c1cc3c(c(=O)n1C2)COC(=O)[C@]3(O)CC [Compound 7, 7-ethyl camptothecin, reference compound] | – | – | – | – | – | – | – | – | – | – | – | – | 3.2 | 3.7 | 4.6 | 3.8 | 19 | 22 | 4.2 | 3.8 | – |
